Measured values as given in the NIST ThermoML archive (doi:10.1016/j.jct.2015.12.032).
Numbers after ± are expanded uncertainties.

Legend:
[1] = for mass density: 298.15 K, 101.33 kPa, Liquid, Pycnometric method
[2] = Molar enthalpy of transition or fusion; conditions: Crystal; DSC

| mass density [1] | Molar enthalpy of transition or fusion [2] | Normal melting temperature ([1]; Crystal, DTA) | SMILES |
| --- | --- | --- | --- |
| 777 ± 1.4 kg/m3 |  |  | CC#N [acetonitrile] |
| 781.2 ± 1.4 kg/m3 |  |  | CC(C)O [propan-2-ol] |
| 802.4 ± 1.5 kg/m3 |  |  | CCC(C)O (stereo not drawn) [butan-2-ol] |

Further lines, the compound ahead of its results:

| SMILES | mass density [1] | Molar enthalpy of transition or fusion [2] | Normal melting temperature ([1]; Crystal, DTA) |
| --- | --- | --- | --- |
| CC(C)=O [acetone] | 785.1 ± 1.4 kg/m3 |  |  |
| CCCCOC(C)=O [butyl ethanoate] | 875.8 ± 1.6 kg/m3 |  |  |
| CCOC(C)=O [ethyl acetate] | 894.4 ± 1.6 kg/m3 |  |  |
| CNC(=O)NC [1,3-dimethylurea] |  | 3.05 ± 0.0932 kcal/mol | 103.20 ± 1.1 °C |
